Reference: ChEMBL document CHEMBL2074510, “Defective ATP-dependent bile canalicular transport of organic anions in mutant (TR-) rats with conjugated hyperbilirubinemia” (Proc Natl Acad Sci U S A, 1990)

Biological target: ATP-binding cassette sub-family C member 2 (Rattus norvegicus, UniProt Q63120)
Assay: TP_TRANSPORTER: uptake in bile canalicular membrane vesicles from Wistar/TR- rat
Format: functional, cell membranes, Bile canalicular membrane vesicle

Chain of ATP-binding cassette sub-family C member 2 (Q63120 whole entry): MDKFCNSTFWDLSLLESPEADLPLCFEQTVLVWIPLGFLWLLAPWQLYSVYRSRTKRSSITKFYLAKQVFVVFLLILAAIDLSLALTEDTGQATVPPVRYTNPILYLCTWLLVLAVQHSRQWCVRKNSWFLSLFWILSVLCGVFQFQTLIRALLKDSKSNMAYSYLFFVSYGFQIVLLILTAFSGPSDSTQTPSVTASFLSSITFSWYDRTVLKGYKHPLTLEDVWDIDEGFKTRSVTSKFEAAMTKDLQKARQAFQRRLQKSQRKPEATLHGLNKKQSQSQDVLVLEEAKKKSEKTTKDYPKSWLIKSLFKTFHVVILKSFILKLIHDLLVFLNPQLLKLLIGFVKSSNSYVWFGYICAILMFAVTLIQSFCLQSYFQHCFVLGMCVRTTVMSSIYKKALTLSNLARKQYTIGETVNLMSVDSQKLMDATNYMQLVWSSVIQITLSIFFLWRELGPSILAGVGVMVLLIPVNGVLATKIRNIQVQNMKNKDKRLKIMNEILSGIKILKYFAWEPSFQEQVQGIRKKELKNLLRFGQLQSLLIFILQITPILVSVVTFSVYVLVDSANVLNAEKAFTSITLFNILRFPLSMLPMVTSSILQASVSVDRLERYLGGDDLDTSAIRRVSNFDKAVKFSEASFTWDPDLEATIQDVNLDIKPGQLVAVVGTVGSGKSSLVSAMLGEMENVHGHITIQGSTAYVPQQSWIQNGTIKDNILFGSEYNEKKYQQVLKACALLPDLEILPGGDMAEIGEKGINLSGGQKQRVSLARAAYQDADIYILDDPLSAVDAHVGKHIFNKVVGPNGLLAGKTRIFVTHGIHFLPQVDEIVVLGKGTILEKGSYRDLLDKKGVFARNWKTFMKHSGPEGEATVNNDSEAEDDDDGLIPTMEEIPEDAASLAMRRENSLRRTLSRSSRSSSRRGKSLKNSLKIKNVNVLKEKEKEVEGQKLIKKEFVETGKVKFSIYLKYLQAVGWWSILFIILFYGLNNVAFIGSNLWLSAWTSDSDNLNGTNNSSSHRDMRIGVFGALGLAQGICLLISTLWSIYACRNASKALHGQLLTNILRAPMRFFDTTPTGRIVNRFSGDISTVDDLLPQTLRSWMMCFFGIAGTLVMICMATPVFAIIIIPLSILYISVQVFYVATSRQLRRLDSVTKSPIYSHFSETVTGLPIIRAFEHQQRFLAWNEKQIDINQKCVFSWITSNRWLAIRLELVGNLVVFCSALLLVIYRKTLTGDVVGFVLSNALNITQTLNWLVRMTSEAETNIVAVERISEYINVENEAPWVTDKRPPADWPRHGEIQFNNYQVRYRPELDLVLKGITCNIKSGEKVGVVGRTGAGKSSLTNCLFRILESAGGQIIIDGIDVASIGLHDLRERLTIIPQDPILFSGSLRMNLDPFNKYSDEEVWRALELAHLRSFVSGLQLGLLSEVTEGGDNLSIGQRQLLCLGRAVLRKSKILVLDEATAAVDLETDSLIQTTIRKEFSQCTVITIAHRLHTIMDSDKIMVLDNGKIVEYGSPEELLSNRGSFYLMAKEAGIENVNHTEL

With `N[C@@H](CCC(=O)N[C@@H](CSc1c(Br)c(Br)c2c(c1Br)C(=O)OC2(c1ccc(O)c(S(=O)(=O)O)c1)c1ccc(O)c(S(=O)(=O)O)c1)C(=O)NCC(=O)O)C(=O)O` the Activity was “substrate [+]”.
